Measured values: a melting point compilation (Tetko et al.; mined from patent text by program, amines drawn as free bases though some values may be those of a salt)

| Structure (SMILES) | melting point [°C] |
| --- | --- |
| O=C1CCCN1CCCn1c(=O)[nH]c2ncc(-c3ccc(O)cc3)nc21 | 305 to 306 |
| N#Cc1cc2ccccc2[nH]1 | 94 to 95 |
| CN1CCN(Cc2ccc(NC(=O)c3cccc4cc(Oc5cc(N)ncn5)ccc34)cc2C(F)(F)F)CC1 | 127 to 130 |
| COc1ccc(Cn2c(S)nnc2C(N)=O)cc1 | 240 to 242 |
| COc1ccc(-c2nc(C)c(C)nc2-c2ccc(OC)cc2)cc1 | 106 to 108 |
| O=C(O)c1cccc(-c2ccc3c(c2)N(c2ccc(Cl)cc2Cl)CCO3)c1 | 222 to 223 |
| Brc1ccc(N2CCC3(CCNCC3)CC2)nc1 | 103 to 105 |
| CC(C)C(NC(=O)c1ccc(C(=O)NCc2ccc(Cl)cc2)cc1)C(=O)N1CCCC1C(=O)NC(C(=O)C(F)(F)F)C(C)C (mixture of isomers) | 87 to 89 |
| CC(=NOCc1ccccc1Nc1c(Cl)ccc(C)c1Cl)C(=O)O | 166 to 171 |
| Nc1ccc(C(=O)N(CCN2CCC(C(=O)c3ccc(F)cc3)CC2)c2ccccc2)cc1 | 156 to 157 |
| NC(=O)CCCOc1cccc(CCNS(=O)(=O)c2ccc(Cl)cc2)c1 | 110 to 112 |
| CC(C)(C)OC(=O)N1CO[C@@](O[Si](C)(C)C)(C(F)(F)F)[C@@H]1Cc1ccccc1 | 53 to 55 |
| COc1ccc(OC(C(=O)O)c2ccccc2)cc1 (stereo unspecified) | 108 to 110 |
| CSC(=S)Nc1ccc(C)cc1C(=O)O | 199 |
| CCOC(=O)OC1CCN(C(=O)OCC)Cc2cc3ccccc3nc21 (stereo unspecified) | < 40 |
| COc1cc2ncc(C#N)c(Nc3cccnc3)c2cc1OC | 231 to 233 |
| O=C(O)c1ccc(OC(F)F)c2oc3ccncc3c12 | > 250 |
| O=C(c1cc(-c2ccccc2)ccn1)N(O)Cc1ccc(F)cc1 | 135 to 140 |
| Cc1oc(-c2ccccc2)nc1CCc1ccc(/C=C/CO)cc1 | 102 to 103 |
| Nc1cccc(S(=O)(=O)NC(=O)C(F)(F)F)c1 | 106 to 108 |
| Cc1oc(-c2ccccc2)nc1CCc1ccc(/C=C/C=C/CO)cc1 | 117 to 118 |
| O=C(Nc1cc(C(F)(F)F)cc(C(F)(F)F)c1)c1cnc(Cl)nc1Cl | 104 to 105 |
| O=C1CC(c2ccc([N+](=O)[O-])cc2)=Nc2cccc(C(F)(F)F)c21 | > 260 |
| CCCc1ccc(S(=O)(=O)Nc2ccc3nc(C)c(C)nc3c2)cc1 | 198 to 199 |

| Structure (SMILES) | melting point [°C] |
| --- | --- |
| COc1ccccc1-n1c(-c2cc(-c3ccccc3)c(N3CCOCC3)s2)nc2ccccc2c1=O | 152 to 154 |
| O=C(Nc1cn(C2CCCCO2)nc1C(=O)NCCCO)c1ccccn1 (stereo unspecified) | 139 to 140 |
| COc1cc2c(cc1OC)-c1c(N3CCNCC3)nc3ccccc3c1C2=O | 135 to 136 |
| COC(=O)C(Oc1ccc(Cl)cc1)c1ccc(I)cc1 (stereo unspecified) | 122 to 125 |
| CCC(=O)N1CCC(NC(=O)NC2CCCCCC2)CC1 | 164 to 172 |
| O=C1CCC2=C1C(c1ccc(F)c(C(F)(F)F)c1)C1=C(CCS1)N2 (stereo unspecified) | 254 |
| O=c1ccnc(NCCCN(Cc2cccc(Cl)c2)c2ccccn2)[nH]1 | 74 to 78 |
| CCC(CC)c1ccc(Cl)c2nc3n(c12)CCCCN3c1ccc(OC(F)(F)F)cc1Br | 114 to 117 |
| CCOC(=O)CCC(=O)[C@H](Cc1ccccc1)NC(=O)c1ccccc1 | 112 to 114 |
| CCN(C)C(=O)Nc1ccc2c(c1)C(c1ccccc1F)=NCC(=O)N2C | 165 to 168 |
| C#Cc1nc(-c2ccco2)c2ncn(Cc3ccc(OC)cc3)c2n1 | 155 |
| CC1(C)OCC(N(c2nc(Cl)nc(N(C3COC(C)(C)OC3)C3COC(C)(C)OC3)n2)C2COC(C)(C)OC2)CO1 | 133 to 135 |
| COC(=O)c1cc(C(=O)Nc2nccs2)c2cc(Cc3ccc(F)cc3)cnc2c1O | 258 to 259 |
| C=C1C(O)CC(OC(C)=O)C2(C)C1CC1(C(C)(C)O)CC(O)C(C)=C1C(OC(=O)c1ccccc1)C2OC(C)=O (stereo unspecified) | 200 to 201 |
| Cc1ccc(OC2COc3ccc(OCc4ccc5ccccc5n4)cc3C2O)cn1 (stereo unspecified) | 134 to 136 |
| CC(=O)CCc1ccc2c(c1)Cc1cc([N+](=O)[O-])ccc1-2 | 159 to 162 |
| OCCn1ccc2ncnc(Nc3ccc(Oc4cccc5sncc45)c(Cl)c3)c21 | 218 to 220 |
| CC1N=C(NN2CCCCC2)NN=C1c1ccccc1 (stereo unspecified) | 188 to 190 |
| Cc1nc2cccc(OCC(C)(C)C(=O)NCC(C)C)c2c(N)c1C(=O)O | 176 to 179 |
| N#Cc1ccc(F)c(-c2ccc(OC(F)(F)F)cc2)c1 | 63.5 to 64.2 |
| CCCCCCCCCCCCCCCCCCNC(=O)OCC(CNS(=O)(=O)CCCI)NC(=O)NC (stereo unspecified) | 87 to 89 |
| CC(=O)NCCSCC(=O)[C@H](Cc1ccccc1)NC(=O)[C@H](CC(C)C)NC(=O)OCc1ccccc1 | 122 to 123 |
| CCC12CCC3C4CCC(=O)C=C4CCC3C1CCC2OC (stereo unspecified) | 117 to 119 |
| O=C(O)CC(=O)Nc1ccc(Br)cc1C(=O)O | 203 to 206 |

| Structure (SMILES) | melting point [°C] |
| --- | --- |
| Cc1cc(C)cc(Sc2c(C(C)C)c(=O)[nH]c(=O)n2CC2=CC(CO)C(CO)C2)c1 (stereo unspecified) | 136 to 137 |
| CN(C)C(=O)CCc1ccc(NC(=O)Nc2ccc(Cl)c(C(F)(F)F)c2)c(-c2nnn[nH]2)c1 | 184 to 189 |
| CCC(=O)NCC=C1CCc2ccc3nc(C)oc3c21 | 214 to 216 |
| CC(C)(C)C(O)(C=Cc1ccc(C2OCCO2)cc1)Cn1cncn1 (stereo unspecified) | 110 |
| FC(F)(F)c1ccc(C=CC(C=Cc2ccc(C(F)(F)F)cc2)=NNC2=NCCCN2)cc1 | 196 to 197 |
| CCOC(=O)c1c(Cn2cncn2)nc2sc3c(c2c1-c1cccc(OC)c1OC)CCCN3C(=O)OCc1ccccc1 | 184 to 185 |
| CSc1nc2ccc(Br)cc2o1 | 95 to 96 |
| O=C(CCCCOCc1ccccc1)c1ccc([N+](=O)[O-])cc1 | 75 |
| N#CCc1ccc([N+](=O)[O-])c2[nH]ncc12 | 198 to 200 |
| CC(Cc1c[nH]c2ccc(F)cc12)C(=O)O (stereo unspecified) | 112 to 113 |
| CC(C)c1c(NC(=O)OCc2ccccc2)nc(-c2ccc(F)cc2)n1CCC1CC(O)CC(=O)O1 (stereo unspecified) | 86 to 90 |
| Cc1ccc(C2=C(C(=O)O)N(CC(C)C)Cc3ccc(OCc4ccccc4)cc32)cc1 | 153 to 154 |
| Nc1ncnc2ncn(COCCO)c12 | 122 to 123 |
| CCOC(=O)CC[C@H](NC(=O)c1ccc(N2CCN(c3c(N)nc(N)nc3CC)CC2)cc1)C(=O)OCC | 226 to 228 |
| c1ccc(CN2CCN(CCCCc3c[nH]c4ccc(-n5cnnc5)cc34)CC2)nc1 | 115 to 118 |
| Cc1nc2c(o1)-c1c(SC(C)C)sc(C(N)=O)c1CC2 | 230 to 231 |
| CCOC(=O)c1c(C(F)(F)F)nc(C(F)F)c(C(=O)OC)c1NCC#N | 87 to 89 |
| CS(=O)(=O)Nc1nc(CN2CCN(C(c3ccccc3)c3ccccc3)CC2)cs1 | 177 to 179 |
| O=C(O)c1n[nH]c2cc(F)ccc12 | > 290 |
| COC(=O)c1cc2cc(OC(F)F)ccc2nc1C(=O)OC | 84 to 85 |
| CCCCCCCCCCCCCCCCCCCCC(=O)Nc1ccn(C2OC(CO)C(O)C2O)c(=O)n1 (stereo unspecified) | 139 to 142 |
| CC(=O)NCC1CCN(CCOc2ccccc2)CC1 | 79 to 80 |
| O=C(CNc1ccc2[nH]c(=O)sc2c1)N1CCC(Cc2ccccc2)CC1 | 196 to 199 |
